Results from ChEMBL document CHEMBL3045873, “Synthesis and anti-juvenile hormone activity of ethyl 4-(2-benzylalkyloxy)benzoates and their enantiomers” (2007).

Experiments:
Assay type in all cases: functional
Bombyx mori [1] = assay: Anti-juvenile hormone activity in Bombyx mori Shunrei x Shougetsu 24 hr old third-instar larvae exposed to compound through topical application to dorsal abdomen assessed as precocious metamorphosis at 40 ug/larva relative to untreated control
Bombyx mori [2] = assay: Anti-juvenile hormone activity in Bombyx mori Shunrei x Shougetsu 24 hr old third-instar larvae exposed to compound through topical application to dorsal abdomen assessed as precocious metamorphosis at 10 ug/larva relative to untreated control
Bombyx mori [3] = assay: Anti-juvenile hormone activity in Bombyx mori Shunrei x Shougetsu 24 hr old third-instar larvae exposed to compound through topical application to dorsal abdomen assessed as precocious metamorphosis at 1 ug/larva relative to untreated control
Bombyx mori [4] = assay: Anti-juvenile hormone activity in Bombyx mori Shunrei x Shougetsu 24 hr old third-instar larvae exposed to compound through topical application to dorsal abdomen assessed as precocious metamorphosis at 0.1 ug/larva relative to untreated control
Bombyx mori [5] = assay: Anti-juvenile hormone activity in Bombyx mori Shunrei x Shougetsu newly molted fourth-instar larvae assessed as precocious metamorphosis at 10 ug/larva relative to untreated control
Bombyx mori [6] = assay: Anti-juvenile hormone activity in Bombyx mori Shunrei x Shougetsu newly molted fourth-instar larvae assessed as precocious metamorphosis at 1 ug/larva relative to untreated control
Bombyx mori [7] = assay: Anti-juvenile hormone activity in Bombyx mori Shunrei x Shougetsu 72 hr old second-instar larvae assessed as precocious metamorphosis at 10 ug/larva relative to untreated control
Bombyx mori [8] = assay: Anti-juvenile hormone activity in Bombyx mori Shunrei x Shougetsu 72 hr old second-instar larvae assessed as precocious metamorphosis at 1 ug/larva relative to untreated control
Bombyx mori [9] = assay: Anti-juvenile hormone activity in Bombyx mori Shunrei x Shougetsu 72 hr old second-instar larvae assessed as precocious metamorphosis at 0.1 ug/larva relative to untreated control
Bombyx mori [10] = assay: Anti-juvenile hormone activity in Bombyx mori Shunrei x Shougetsu 24 hr old fifth-instar larvae assessed as time required for onset of cocoon spinning starting from ecdysis day at 1 ug/1 ul applied topically (reference value: 8 +/- 1.2 days)
Bombyx mori [11] = assay: (§1) Anti-juvenile hormone activity in Bombyx mori Shunrei x Shougetsu 24 hr old third-instar larvae exposed to compound through topical application to dorsal abdomen assessed as precocious metamorphosis at 0.1 ug/larva in presence of 10 ug/larva methoprene applied to 24 hr old third-instar larvae relative to untreated control
Bombyx mori [12] = assay: Anti-juvenile hormone activity in Bombyx mori Shunrei x Shougetsu first 48 hr old newly molted third-instar larvae assessed as precocious metamorphosis at 50 ppm mixed with artificial diet untreated control
Bombyx mori [13] = assay: (§2) Anti-juvenile hormone activity in Bombyx mori Shunrei x Shougetsu 24 hr old third-instar larvae exposed to compound through topical application to dorsal abdomen assessed as precocious metamorphosis at 0.1 ug/larva in presence of 20 ppm 20-hydroxyecdysone applied through diet for first 48 hr to 24 hr old newly molted fourth-instar larvae relative to untreated control
Bombyx mori [14] = assay: as §2, with “third-instar” for “newly molted fourth-instar”
Bombyx mori [15] = assay: as §1, with “hr old newly molted fourth-instar larvae relative” for “hr old third-instar larvae relative”
Bombyx mori [16] = assay: Anti-juvenile hormone activity in Bombyx mori Shunrei x Shougetsu first 48 hr old newly molted third-instar larvae assessed as precocious metamorphosis at 200 ppm mixed with artificial diet untreated control

Row | Structure (SMILES) | Activity (Bombyx mori [1]) | Activity (Bombyx mori [2]) | Activity (Bombyx mori [3]) | Activity (Bombyx mori [4]) | Time (Bombyx mori [10]) | also measured
1 | CCCC(COc1ccc(C(=O)OCC)cc1)Cc1ccccc1 (racemic) | 87% | 37% | 22% | 0% | – | –
2 | CCCC[C@@H](COc1ccc(C(=O)OCC)cc1)Cc1ccccc1 | 67% | 42% | 8% | 0% | 8.4 days | Activity (Bombyx mori [5]): 0%; Activity (Bombyx mori [6]): 5%; Activity (Bombyx mori [7]): 0%; Activity (Bombyx mori [8]): 0%; Activity (Bombyx mori [9]): 0%
3 | CCOC(=O)c1ccc(OCC(CC)Cc2ccccc2)cc1 (racemic) | – | 5% | 0% | 0% | – | –
4 | CCCC[C@H](COc1ccc(C(=O)OCC)cc1)Cc1ccccc1 | 15% | 17% | 96% | 52% | 14.3 days | Activity (Bombyx mori [5]): 0%; Activity (Bombyx mori [6]): 10%; Activity (Bombyx mori [7]): 95%; Activity (Bombyx mori [8]): 89%; Activity (Bombyx mori [9]): 20%
5 | CCOC(=O)c1ccc(OCC(Cc2ccccc2)CC(C)C)cc1 (racemic) | 46% | 22% | 0% | 0% | – | –
6 | CCOC(=O)c1ccc(OCC(CC)OC(=O)C(C)(C)C)cc1 (stereo not given) | 0% | 0% | 10% | 0% | 12.7 days | –
7 | CCCCC[C@H](COc1ccc(C(=O)OCC)cc1)Cc1ccccc1 | 17% | 39% | 97% | 65% | – | –
8 | CCCCC[C@@H](COc1ccc(C(=O)OCC)cc1)Cc1ccccc1 | 76% | 83% | 54% | 0% | – | –
9 | CCCCCC(COc1ccc(C(=O)OCC)cc1)Cc1ccccc1 (racemic) | 20% | 48% | 94% | 37% | – | –
10 | CCCCC(COc1ccc(C(=O)OCC)cc1)Cc1ccccc1 (racemic) | 12% | 34% | 90% | 21% | 10.1 days | Activity (Bombyx mori [11]): 0%; Activity (Bombyx mori [5]): 10%; Activity (Bombyx mori [6]): 5%; Activity (Bombyx mori [7]): 85%; Activity (Bombyx mori [8]): 45%; Activity (Bombyx mori [12]): 58%; Activity (Bombyx mori [13]): 100%; Activity (Bombyx mori [14]): 95%; Activity (Bombyx mori [9]): 0%; Activity (Bombyx mori [15]): 0%; Activity (Bombyx mori [16]): 5%
11 | CCCCC(COc1ccc(C(=O)O)cc1)Cc1ccccc1 (stereo not given) | – | – | – | – | – | Activity (Bombyx mori [12]): 0%; Activity (Bombyx mori [16]): 0%
12 | CCCCCCC(COc1ccc(C(=O)OCC)cc1)Cc1ccccc1 (racemic) | 62% | 42% | 20% | 0% | – | –
13 | COC(C)(C)CCC[C@H](C)C/C=C/C(C)=C/C(=O)OC(C)C [METHOPRENE] | – | – | – | – | 10.9 days | –
14 | CCOC(=O)c1ccc(OCC(Cc2ccccc2)Cc2ccccc2)cc1 | 95% | 65% | 35% | 0% | – | –
